{"source": "patent US20130004979A1", "about": "“GLYCOSYLTRANSFERASE REVERSIBILITY FOR SUGAR NUCLEOTIDE SYNTHESIS AND MICROSCALE SCANNING” (WISCONSIN ALUMNI RESEARCH FOUNDATION, priority 2010, published 2013)", "key": {"OleD variant TDP-16 [1]": {"target": "T1, OleD variant TDP-16 (Streptomyces antibioticus, UniProt Q53685, A242L/P67T/Q268V/S132F)", "T1 sequence (Q53685 other isoform, or with tags, fused parts or gaps P55A/P67T/R82V/R83E/T84P/S132F/A242L/Q268V)": "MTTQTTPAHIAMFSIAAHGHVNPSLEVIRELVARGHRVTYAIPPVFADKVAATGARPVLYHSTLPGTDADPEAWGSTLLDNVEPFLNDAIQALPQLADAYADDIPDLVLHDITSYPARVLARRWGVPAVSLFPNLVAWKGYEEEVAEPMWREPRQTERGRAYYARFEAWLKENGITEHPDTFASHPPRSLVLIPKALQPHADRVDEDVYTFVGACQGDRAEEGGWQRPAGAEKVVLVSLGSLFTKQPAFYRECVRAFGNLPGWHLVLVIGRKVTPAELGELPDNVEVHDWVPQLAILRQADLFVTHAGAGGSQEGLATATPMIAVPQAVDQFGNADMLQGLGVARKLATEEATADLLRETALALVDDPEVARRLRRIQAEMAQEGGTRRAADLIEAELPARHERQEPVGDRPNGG", "assay": "NDP screening with 2-chloro-4-nitrophenyl glucoside (9)", "type": "biochemical", "settings": "donor 9, TDP-16, NDP as acceptor", "experimental": "Reactions were allowed to proceed for 5 hours, quenched with an equal volume of 40 mM phosphoric acid (adjusted to pH 6.5 with triethylamine) and heated for 30 seconds on a heat block. Following, samples were centrifuged at 10,000 g for 30 min at 0° C. and the supernatant removed for analysis. The clarified reaction mixtures were analyzed by analytical reverse-phase HPLC. HPLC was conducted with a Supelcosil LC18-T (3 μm, 150×4.6 mm) column (from Sigma-Aldrich St. Louis, Mo., USA) with a gradient of 0% B to 100% B over 20 min (A=40 mM phosphoric acid [adjusted to pH 6.5 with triethylamine]; B=10% MeOH in 40 mM phosphoric acid [adjusted to pH 6.5 with triethylamine]; flow rate=0.5 mL min-1) and detection monitored at 254 nm."}, "[2]": {"target": "OleD variant P67T/S312F/A242L/Q268V (Streptomyces antibioticus, UniProt Q53685, A242L/P67T/Q268V/S132F)", "sequence (Q53685 other isoform, or with tags, fused parts or gaps P55A/P67T/R82V/R83E/T84P/S132F/A242L/Q268V)": "as above", "assay": "Determination of equilibrium constants of the glucoside donor/UDP reaction", "type": "biochemical", "settings": "with UDP, Tris-HCl 50 mM pH 8.5, 298K, relative to UDP-Glc (33a); calculated from Keq", "experimental": "Equilibrium constants (Keq, pH8.5) were also determined for 1, 2, 4, 7, and 9 and utilized to calculate the corresponding Gibbs free energy according to equation (1).\nΔG°pH8.5=−RT ln(Keq,pH8.5)\nReactions contained 21 μM (200 μg) OleD variant P67T/S312F/A242L/Q268V, 1 mM UDP, and 1 mM β-D-glucopyranoside donor (1, 2, 4, 7, or 9) in Tris-HCl buffer (50 mM, pH 8.5) in a final total volume of 200 μl. Multiple time course evaluations were conducted to determine the time at which each reaction reached equilibrium (<2 min for 7, 9; <90 min for 1, 4; 200 min for 2). Following, each analysis was conducted in triplicate to the minimum observed time point for equilibrium and samples were processed and evaluated as described below to determine concentrations of UDP to 33a (UDP-α-D-glucose). […] Glucoside and aglycon concentrations were inferred from the determined concentrations of UDP and 33a."}, "[3]": {"assay": "Solubility of donor under kinetic assay conditions", "type": "physicochemical", "settings": "50 mM Tris-HCl buffer, aqueous buffer; 50 mM Tris-HCl (pH 8.5)"}, "OleD variant": {"target": "OleD variant (Streptomyces antibioticus, UniProt Q53685, A242L/P67T/Q268V/S132F)", "sequence (Q53685 other isoform, or with tags, fused parts or gaps P55A/P67T/R82V/R83E/T84P/S132F/A242L/Q268V)": "as above", "assay": "β-D-glucoside screening: reverse reaction forming UDP-/TDP-glucose", "type": "biochemical", "settings": "in combination with OleD variant TDP-16", "excerpt": "The availability of a GT capable of utilizing a wide array of both simple aromatic acceptors and sugar nucleotides set the stage for this systematic study. With the aid of a crystal structure (10), previous directed evolution and engineering of an inverting macrolide-inactivating GT from S. antibioticus (OleD) identified several highly permissive variants for both sugar nucleotides (14 known sugar substrates) and acceptors (>70 structurally diverse known substrates) in the context of the forward reaction (11-16). Utilizing the aglycons recognized in forward reactions as a template, a set of 32 putative ü-D-glucopyranosides donors were synthesized and tested against a series of OleD variants in reverse reactions for production of UDP-J-D-glucose (UDP-Glc, 33a) in the presence of UDP (FIG. 14a). The syntheses of these putative donors required 1-3 steps (37% average overall yield) and, in all but one case (19), provided the desired E-anomer exclusively. Of the 32 putative donors evaluated, 9 (1-9) led to UDP-Glc (33a) formation with all variants examined (FIG. 14b).\nReactions containing 2.1 μM (10 μg) of purified OleD variant, 1 mM of UDP or TDP, and 1 mM of β-D-glucopyranoside (1-32) in Tris-HCl (50 mM, pH 8.5) with a final volume of 100 μl were incubated at room temperature for 1 hour. Samples were frozen in a bath of dry ice and acetone and stored at −20° C. […]"}, "OleD variant TDP-16 [4]": {"target": "T1, OleD variant TDP-16", "assay": "Single enzyme coupled colorimetric screen of putative aglycon acceptors (410 nm)", "type": "biochemical", "settings": "0.5 mM 9, 0.5 mM acceptor, 5 μM UDP, TDP-16, 410 nm over 480 min", "experimental": "Specifically, each 100 PI reaction in the 96-well plate contained the sugar donor 9 (0.5 mM), a putative aglycon acceptor (0.5 mM), a catalytic amount of UDP (5 3M) and TDP-16 (11 3M) and reaction progress was monitored at 410 nm over 480 min. […] Based upon this cumulative rapid analysis, […] (62-103) led to a positive response (designated as three standard deviations above the mean for control reactions), 37 of which (62-93, 96, 97, 99, 101, 103) were subsequently confirmed by HPLC and/or LC/MS to lead to products consistent with glucoside formation.\nReactions containing 10.5 μM (50 μg) OleD variant TDP-16, 5 μM of UDP, 0.5 mM final acceptor (58 [as a positive control] and 62-111), and 0.5 mM 2-chloro-4-nitrophenyl-β-D-glucoside (9) in Tris-HCl buffer (50 mM, pH 8.5) with a final volume of 100 μl were prepared in a 96 well flat bottom Bacti plate (0.4 mL well^−1; Nagle Nunc International, Rochester, N.Y., USA). Absorbance measurements were recorded every 2 min at 410 nm for 8 hours on a FLUOstar Optima plate reader (BMG, Durham, N.C., USA) with the plate shaken within the reader for 5 seconds before collection of each time point. Reactions containing final acceptor were run at n=1, control reactions lacking final acceptor were run at n=6, and control reactions lacking both final acceptor and UDP were run at n=3. […]"}, "OleD variant TDP-16 [5]": {"target": "T1, OleD variant TDP-16", "assay": "2-chloro-4-nitrophenyl glycoside screening for NDP-sugar formation", "type": "biochemical", "procedure": "Aliquots were removed at various time points, mixed with an equal volume of ddH2O, frozen in a bath of dry ice and acetone, and stored at −20° C. Following, samples were thawed at 4° C. and filtered through a MultiScreen Filter Plate (from Millipore, Billerica, Mass., USA) according to manufacturer's instructions. Samples were evaluated for formation of NDPsugar by analytical reverse-phase HPLC with a 250 mm×4.6 mm Gemini-NX 5μ C18 column (from Phenomenex, Torrance, Calif., USA) using a linear gradient of 0% to 50% CH3CN (solvent B) over 25 minutes (solvent A=50 mM PO4^−2, 5 mM tetrabutylammonium bisulfate, 2% acetonitrile [pH adjusted to 6.0 with KOH]; flow rate=1 ml min^−1; A254 nm)."}}}
{"compound": "Nc1ncnc2c1ncn2[C@@H]1O[C@H](COP(=O)(O)OP(=O)(O)O)[C@@H](O)[C@H]1O", "note": "[ADP]", "values": [{"measurement": "NDP-sugar formation efficiency", "setting": "OleD variant TDP-16 [1]", "value": "much lower efficiency"}]}
{"compound": "OCC1O[C@@H](Oc2ccccc2Cl)C(O)[C@@H](O)[C@@H]1O", "note": "(stereo partly drawn) [Compound 4, 2-chlorophenyl-β-D-glucopyranoside]", "values": [{"measurement": "ΔG°pH8.5 of donor to UDP-Glc transformation", "setting": "[2]", "value": "+2.55 kcal mol-1"}]}
{"compound": "O=[N+]([O-])c1ccc(O[C@@H]2OC(CO)[C@@H](O)[C@H](O)C2O)c(Cl)c1", "note": "(stereo partly drawn) [Compound 9, 2-chloro-4-nitrophenyl-β-D-glucopyranoside]", "values": [{"measurement": "ΔG°pH8.5 of donor to UDP-Glc transformation", "setting": "[2]", "value": "−2.78", "unit": "kcal mol-1"}, {"measurement": "solubility", "setting": "[3]", "value": "~25", "unit": "mM"}, {"measurement": "overall yields of UDP-Glc (33a) or TDP-Glc (33b)", "setting": "OleD variant", "value": "best overall yields"}]}
{"compound": "O=c1c(-c2ccc(O)cc2)coc2cc(O)cc(O)c12", "note": "[Compound 62, genistein]", "values": [{"measurement": "response in colorimetric screen (three standard deviations above the mean for control reactions)", "setting": "OleD variant TDP-16 [4]", "value": "hits"}]}
{"compound": "O=C(O)c1cn(C2CC2)c2cc(N3CCNCC3)c(F)cc2c1=O", "note": "[Compound 92, ciprofloxacin]", "values": [{"measurement": "response in colorimetric screen (three standard deviations above the mean for control reactions)", "setting": "OleD variant TDP-16 [4]", "value": "hits"}]}
{"compound": "Nc1nc2c(ncn2[C@@H]2O[C@H](COP(=O)(O)OP(=O)(O)O)[C@@H](O)[C@H]2O)c(=O)[nH]1", "note": "[GDP]", "values": [{"measurement": "NDP-sugar formation efficiency", "setting": "OleD variant TDP-16 [1]", "value": "much lower efficiency"}]}
{"compound": "O=[N+]([O-])c1ccc(O[C@H]2OC[C@@H](O)[C@H](O)[C@H]2O)c(Cl)c1", "note": "[α-anomer of 38]", "values": [{"measurement": "turnover as donor substrate (anomer)", "setting": "OleD variant TDP-16 [5]", "value": "no turnover"}]}
